In publication PMC10157847 (ACS Omega, 2023):

The compounds below were run against T1, α-amylase from porcine pancreatic (Sus scrofa, UniProt P00690) (assay: In vitro α-amylase inhibition assay). Details: not given.
T1 sequence (P00690 16-511): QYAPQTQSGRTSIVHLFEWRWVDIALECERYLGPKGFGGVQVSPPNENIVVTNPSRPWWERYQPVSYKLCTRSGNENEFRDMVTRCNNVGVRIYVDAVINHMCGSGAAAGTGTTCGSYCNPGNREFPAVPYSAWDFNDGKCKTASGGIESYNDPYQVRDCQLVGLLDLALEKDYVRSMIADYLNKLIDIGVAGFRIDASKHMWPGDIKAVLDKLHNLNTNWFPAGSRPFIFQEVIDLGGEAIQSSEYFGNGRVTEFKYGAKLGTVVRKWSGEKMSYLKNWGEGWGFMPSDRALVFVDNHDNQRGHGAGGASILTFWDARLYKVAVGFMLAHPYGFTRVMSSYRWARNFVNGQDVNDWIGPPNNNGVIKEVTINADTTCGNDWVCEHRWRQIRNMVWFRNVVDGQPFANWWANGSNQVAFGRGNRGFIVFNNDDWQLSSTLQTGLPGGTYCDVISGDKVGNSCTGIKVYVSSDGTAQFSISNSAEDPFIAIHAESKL
Type: biochemical

| Compound | IC50 |
| --- | --- |
| Cc1ccc([N+](=O)[O-])cc1S(=O)(=O)N/N=C1\C(=O)Nc2ccc([N+](=O)[O-])cc21 [Compound 4] | 13.3 ± 0.3 µM |
| O=C1Nc2ccc([N+](=O)[O-])cc2/C1=N/NS(=O)(=O)c1ccc([N+](=O)[O-])cc1 [Compound 5] | 13.2 ± 0.2 µM |
| Cc1ccc([N+](=O)[O-])cc1S(=O)(=O)N/N=C1\C(=O)Nc2ccccc21 [Compound 9] | 13.2 ± 0.3 µM |
| O=C1Nc2ccccc2/C1=N/NS(=O)(=O)c1ccc([N+](=O)[O-])cc1 [Compound 10] | 13.2 ± 0.2 µM |
| Cc1ccc([N+](=O)[O-])cc1S(=O)(=O)N/N=C1\C(=O)Nc2ccc(Cl)cc21 [Compound 15, (Z)-N'-(5-chloro-2-oxoindolin-3-ylidene)-2-methyl-5-nitrobenzenesulfonohydrazide] | 14.9 ± 0.2 µM |

Same assay, conditions: read-out: IC50 ± SEM Alpha-amylase; porcine pancreatic α-amylase, starch

| Compound | IC50 |
| --- | --- |
| O=C1Nc2ccc(Cl)cc2/C1=N/NS(=O)(=O)c1ccc([N+](=O)[O-])cc1 [Compound 16, (Z)-N'-(5-chloro-2-oxoindolin-3-ylidene)-4-nitrobenzenesulfonohydrazide] | 12.3 ± 20 µM |
